Results as given in patent publication US6348445B1, “Biologically active peptides with reduced toxicity in animals and a method for preparing same” (priority 1992, dated 2002).
Where a SMILES comes first, the peptide text is derived from it. The star is where a group is joined. Octanoyl = CCCCCCCC(=O)*

Legend:
Assay type in all cases: cell-based
[1] = test system: E. coli ATCC strain 25922; experiment: Minimal Inhibitory Concentration, microtiter broth dilution; details: ATCC strain 25922
Excerpt: (§1) Table I, which follows, indicates the Minimal Inhibitory Concentration (MIC) in […] of various peptides against S.aureus strain ATCC 25923(S), P. aeruginosa strain ATCC 27853(P), E. coli ATCC strain 25922(E), and C. 4albicans (CA). […] The peptides are unsubstituted at the N-terminal; substituted with an acetyl group at the N-terminal, as indicated by Ac-; substituted with an octanoyl group at the N-terminal, as indicated by Oct-; substituted with spinogosine, as indicated by Sph-; substituted with a succinyl group, as indicated by Suc-; substituted with a hexanoyl group, as indicated by Hex-; substituted with a heptanoyl group, as indicated by Hep-; substituted with a valeryl group, as indicated by Val-; substituted with a myristryl group, as indicated by Myr-; or substituted with an ibuprofyl group, as indicated by Ibu-;
(§2) The procedure for the anti-bacterial assay is based upon the guidelines of the National Committee for Clinical Laboratory Standards, Document M7-T2, Volume 8, No. 8, 1988, which document is entirely incorporated herein by reference.
(§3) Stock solutions of peptides, with and without the appropriate substitutions, were prepared at a concentration of 512 μg/ml in sterile deionized distilled water and stored at −70° C.
(§4) The stock peptide solution was diluted in serial dilutions (1:2) down the wells of a microtiter plate so that the final concentrations of peptides in the wells were 0.25, 0.50, 1, 2, 4, 8, 16, 32, 64, 128 and 256 μg/ml. 1-5×10^5 CFUs/ml of either S. aureus ATCC 25923, E. coli ATCC 25922, P. aeruginosa ATCC 27853, or C. albicans, were added to the wells in full strength Mueller Hinton broth (BBL 11443) from a mid-log culture. The inoculum was standardized spectrophotometrically at 600 nm and was verified by colony counts. The plates were incubated for 16-20 hours at 37° C., and the minimal inhibitory concentration (MIC) for each peptide was determined. Minimal inhibitory concentration is defined as the lowest concentration of peptide which produces a clear well in the microtiter plate. The minimal inhibitory concentration of each of the peptides with and/or without the appropriate substitutions is given in Table I below.
(§5) The in vitro anti-microbial activities of the methane sulfonate derivatives were determined according to the methods described in Examples 1 and 2. The activities against ATCC strains of S. aureus, E. coli, P. aeruginosa, and C. albicans, and the hemolysis of red blood cells were compared to the parent compound (Table IV). The activities for Compound 843 (Oct-SEQ ID NO:143) methane sulfonate against clinical strains of P. aeruginosa isolated from cystic fibrosis patients were compared to the parent compound (Table V). The activity for Compound 469 (Oct-SEQ ID NO:27) methane sulfonate against P. gingivalis was compared to the parent compound (Table VI).

[2] = test system: P. aeruginosa strain ATCC 27853; details: ATCC 27853
Excerpt: as §1, §2, §3, §4, §5

C. albicans = test system: C. albicans
Excerpt: as §1, §2, §3, §4

Row | Structure (SMILES) | Minimal Inhibitory Concentration E [1] [µg/mL] | Minimal Inhibitory Concentration P [2] [µg/mL] | Minimal Inhibitory Concentration CA (C. albicans) [µg/mL]
1 | CCCCCCCC(=O)N[C@@H](CCCCN)C(=O)N[C@@H](CCCCN)C(=O)N[C@@H](CC(C)C)C(=O)N[C@@H](CC(C)C)C(=O)N[C@@H](CCCCN)C(=O)N[C@@H](CCCCN)C(=O)N[C@@H](CC(C)C)C(=O)N[C@@H](CCCCN)C(=O)N[C@@H](CCCCN)C(=O)N[C@@H](CC(C)C)C(N)=O [Oct-(SEQ ID NO: 109)-NH2] (Octanoyl-KKLLKKLKKL-NH2) | 16 | 4 | 32
2 | CCCCCCCC(=O)N[C@@H](CC(C)C)C(=O)N[C@@H](CCCCN)C(=O)N[C@@H](CCCCN)C(=O)N[C@@H](CC(C)C)C(=O)N[C@@H](CC(C)C)C(=O)N[C@@H](CCCCN)C(=O)N[C@@H](CCCCN)C(=O)N[C@@H](CC(C)C)C(=O)N[C@@H](CCCCN)C(=O)N[C@@H](CCCCN)C(=O)N[C@@H](CC(C)C)C(N)=O [Oct-(SEQ ID NO: 110)-NH2] (Octanoyl-LKKLLKKLKKL-NH2) | 8 | 4 | 32
3 | CCCCCCCC(=O)N[C@@H](C)C(=O)N[C@@H](CCCCN)C(=O)N[C@@H](CCCCN)C(=O)N[C@@H](CC(C)C)C(=O)N[C@@H](CC(C)C)C(=O)N[C@@H](CCCCN)C(=O)N[C@@H](CCCCN)C(=O)N[C@@H](CC(C)C)C(=O)N[C@@H](CCCCN)C(=O)N[C@@H](CCCCN)C(=O)N[C@@H](CC(C)C)C(N)=O [Oct-(SEQ ID NO: 111)-NH2] (Octanoyl-AKKLLKKLKKL-NH2) | 32 | 8 | 32
4 | CCCCCCCC(=O)N[C@@H](CC(C)C)C(=O)N[C@@H](CC(C)C)C(=O)N[C@@H](CCCCN)C(=O)N[C@@H](CCCCN)C(=O)N[C@@H](CC(C)C)C(=O)N[C@@H](CCCCN)C(=O)N[C@@H](CCCCN)C(=O)N[C@@H](CC(C)C)C(=O)N[C@@H](CC(C)C)C(=O)N[C@@H](CCCCN)C(=O)N[C@@H](CCCCN)C(=O)N[C@@H](CC(C)C)C(N)=O [Oct-(SEQ ID NO: 113)-NH2] (Octanoyl-LLKKLKKLLKKL-NH2) | 8 | 8 | 128
5 | CCCCCCCC(=O)N[C@@H](CCCCN)C(=O)N[C@@H](Cc1ccccc1)C(=O)N[C@@H](C)C(=O)N[C@@H](CCCCN)C(=O)N[C@@H](CCCCN)C(=O)N[C@@H](Cc1ccccc1)C(=O)N[C@@H](C)C(N)=O [Oct-(SEQ ID NO: 118)-NH2] (Octanoyl-KFAKKFA-NH2) | >256 | >256 | >256
6 | CCCCCCCC(=O)N[C@@H](CCCCN)C(=O)N[C@H](C(=O)N[C@@H](C)C(=O)N[C@@H](CCCCN)C(=O)N[C@@H](CCCCN)C(=O)N[C@H](C(=O)N[C@@H](C)C(N)=O)[C@@H](C)CC)[C@@H](C)CC [Oct-(SEQ ID NO: 119)-NH2] (Octanoyl-KIAKKIA-NH2) | >256 | >256 | >256
7 | CCCCCCCC(=O)N[C@@H](CCCNC(=N)N)C(=O)N[C@@H](Cc1ccccc1)C(=O)N[C@@H](C)C(=O)N[C@@H](CCCNC(=N)N)C(=O)N[C@@H](CCCNC(=N)N)C(=O)N[C@@H](Cc1ccccc1)C(=O)N[C@@H](C)C(N)=O [Oct-(SEQ ID NO: 120)-NH2] (Octanoyl-RFARRFA-NH2) | 256 | 128 | 64
8 | CCCCCCCC(=O)N[C@@H](CCCCN)C(=O)N[C@@H](Cc1ccccc1)C(=O)N[C@@H](C)C(=O)N[C@@H](CCCCN)C(=O)N[C@@H](Cc1ccccc1)C(=O)N[C@@H](C)C(=O)N[C@@H](CCCCN)C(=O)N[C@@H](CCCCN)C(=O)N[C@@H](Cc1ccccc1)C(=O)N[C@@H](C)C(N)=O [Oct-(SEQ ID NO: 121)-NH2] (Octanoyl-KFAKFAKKFA-NH2) | 256 | 256 | 256
9 | CCCCCCCC(=O)N[C@@H](CCCCN)C(=O)N[C@@H](CCCCN)C(=O)N[C@@H](Cc1ccccc1)C(=O)N[C@@H](C)C(=O)N[C@@H](CCCCN)C(=O)N[C@@H](Cc1ccccc1)C(=O)N[C@@H](C)C(=O)N[C@@H](CCCCN)C(=O)N[C@@H](CCCCN)C(=O)N[C@@H](Cc1ccccc1)C(=O)N[C@@H](C)C(N)=O [Oct-(SEQ ID NO: 122)-NH2] (Octanoyl-KKFAKFAKKFA-NH2) | 64 | 32 | 64
10 | CCCCCCCC(=O)N[C@@H](CCCCN)C(=O)N[C@@H](Cc1ccccc1)C(=O)N[C@@H](C)C(=O)N[C@@H](CCCCN)C(=O)N[C@@H](CCCCN)C(=O)N[C@@H](Cc1ccccc1)C(=O)N[C@@H](C)C(=O)N[C@@H](CCCCN)C(=O)N[C@@H](Cc1ccccc1)C(=O)N[C@@H](C)C(=O)N[C@@H](CCCCN)C(=O)N[C@@H](CCCCN)C(=O)N[C@@H](Cc1ccccc1)C(=O)N[C@@H](C)C(N)=O [Oct-(SEQ ID NO: 125)-NH2] (Octanoyl-KFAKKFAKFAKKFA-NH2) | 16 | 8 | 64
11 | CCCCCCCC(=O)N[C@@H](CCCNC(=N)N)C(=O)N[C@@H](Cc1ccccc1)C(=O)N[C@@H](C)C(=O)N[C@@H](CCCNC(=N)N)C(=O)N[C@@H](CCCNC(=N)N)C(=O)N[C@@H](Cc1ccccc1)C(=O)N[C@@H](C)C(=O)N[C@@H](CCCNC(=N)N)C(=O)N[C@@H](Cc1ccccc1)C(=O)N[C@@H](C)C(=O)N[C@@H](CCCNC(=N)N)C(=O)N[C@@H](CCCNC(=N)N)C(=O)N[C@@H](Cc1ccccc1)C(=O)N[C@@H](C)C(N)=O [Oct-(SEQ ID NO: 126)-NH2] (Octanoyl-RFARRFARFARRFA-NH2) | 8 | 8 | 64
12 | CCCCCCCC(=O)N[C@@H](CCC(=O)O)C(=O)N[C@@H](CCCCN)C(=O)N[C@@H](CCCCN)C(=O)N[C@@H](CC(C)C)C(=O)N[C@@H](CC(C)C)C(=O)N[C@@H](CCCCN)C(=O)N[C@@H](CCCCN)C(=O)N[C@@H](CC(C)C)C(=O)N[C@@H](CCCCN)C(=O)N[C@@H](CCCCN)C(=O)N[C@@H](CC(C)C)C(N)=O [Oct-(SEQ ID NO: 127)-NH2] (Octanoyl-EKKLLKKLKKL-NH2) | 32 | 32 | 128
13 | CCCCCCCC(=O)N[C@@H](CCCCN)C(=O)N[C@@H](CCCCN)C(=O)N[C@@H](CCCCN)C(=O)N[C@@H](CC(C)C)C(=O)N[C@@H](CC(C)C)C(=O)N[C@@H](CCCCN)C(=O)N[C@@H](CCCCN)C(=O)N[C@@H](CC(C)C)C(=O)N[C@@H](CCCCN)C(=O)N[C@@H](CCCCN)C(=O)N[C@@H](CC(C)C)C(N)=O [Oct-(SEQ ID NO: 128)-NH2] (Octanoyl-KKKLLKKLKKL-NH2) | 32 | 64 | 32
14 | CCCCCCCC(=O)N[C@@H](CCCCN)C(=O)N[C@@H](CC(C)C)C(=O)N[C@@H](CCCCN)C(=O)N[C@@H](CCCCN)C(=O)N[C@@H](CCCCN)C(=O)N[C@@H](Cc1ccccc1)C(=O)N[C@@H](CC(C)C)C(=O)N[C@@H](CCCCN)C(=O)N[C@@H](CCCCN)C(=O)N[C@@H](CC(C)C)C(N)=O [Oct-(SEQ ID NO: 129)-NH2] (Octanoyl-KLKKKFLKKL-NH2) | 32 | 16 | 128
15 | CCCCCCCC(=O)N[C@@H](CC(C)C)C(=O)N[C@@H](CCCCN)C(=O)N[C@@H](CCCCN)C(=O)N[C@@H](CC(C)C)C(=O)N[C@@H](CC(C)C)C(=O)N[C@@H](CCC(=O)O)C(=O)N[C@@H](CCCCN)C(=O)N[C@@H](CC(C)C)C(=O)N[C@@H](CCCCN)C(=O)N[C@@H](CCCCN)C(=O)N[C@@H](CC(C)C)C(N)=O [Oct-(SEQ ID NO: 130)-NH2] (Octanoyl-LKKLLEKLKKL-NH2) | 4 | 4 | 8
